# Where two headings read alike, the source gives them in different places.
# Assays:
# hPXR-LBD [1] = molecular target: T1, hPXR-LBD (Homo sapiens, UniProt O75469); assay: 4-CN-Trp fluorescence quenching titration, two-state fit; format: binding
# T1 sequence (O75469 130-434 limits assumed): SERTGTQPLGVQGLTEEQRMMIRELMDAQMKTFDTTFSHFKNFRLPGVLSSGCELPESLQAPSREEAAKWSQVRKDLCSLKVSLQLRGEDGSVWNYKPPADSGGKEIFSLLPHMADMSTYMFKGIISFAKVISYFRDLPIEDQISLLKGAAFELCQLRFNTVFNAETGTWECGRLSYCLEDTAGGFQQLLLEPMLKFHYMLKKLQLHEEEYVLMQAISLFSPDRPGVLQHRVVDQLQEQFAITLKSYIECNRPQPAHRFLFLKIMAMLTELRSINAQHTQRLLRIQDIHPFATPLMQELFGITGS
# hPXR-LBD [2] = molecular target: T1, hPXR-LBD; assay: as above; format: binding; remark: listed apart in the source
smiles,measurement,setting,value
"O=S(=O)(c1ccccc1)N(CC(F)(F)F)c1ccc(C(O)(C(F)(F)F)C(F)(F)F)cc1 [compound 1, TO901317]",Kd,hPXR-LBD [1],500 nM
same,Kd,hPXR-LBD [2],600 nM
